From the supplement of paper PMC7801607

Tests used:
[1] = test system: Plasmodium falciparum NF54 stage IV/V gametocytes
Experimental: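 Dose-response IC50s: P. falciparum NF54 asexual (pLDH, 72 h; 6 means >6 µM), Dd2 asexual (SYBR Green I, 72 h, 1536-well; 5 means >5 µM), NF54 stage IV/V gametocytes (luciferase 48 h, ATP 24 h, PrestoBlue 48 h), P. berghei liver stage in HepG2-A16-CD81 (luciferase, 48 h; 5 means >5 µM), HepG2 CC50 (CellTiter-Glo; 5 means >5 µM).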

[2] = test system: Plasmodium falciparum Dd2 asexual blood stage
[3] = test system: Plasmodium falciparum NF54 asexual blood stage

| Structure (SMILES) | IC50 (ATP bioluminescence) [1] [µM] | IC50 [2] [µM] | IC50 [3] [µM] |
| --- | --- | --- | --- |
| CCCCc1ccc(C(=O)O)nc1 | – | > 5 | > 6 |
| C[Si]1(C)CCN(Cc2cc(-c3ccc(Cl)cc3)n(-c3ccc(Cl)cc3)n2)CC1 | 1.29 | – | > 6 |
| Nc1c(C(=O)NCc2ccco2)c2nc3ccccc3nc2n1CCN1CCCCC1 | 3.16 | > 5 | > 6 |
| CC1CCc2c(N3CCC(O)CC3)c(F)cc3c(=O)c(C(=O)O)cn1c23 (stereo not given) | – | > 5 | > 6 |
| Nc1cnn(C2OC(CO)C(O)C2O)c(=O)n1 (stereo not given) | – | > 5 | > 6 |
| Cc1c(OCC(F)(F)F)ccnc1CS(=O)c1nc2ccccc2[nH]1 (stereo not given) | – | > 5 | > 6 |
| COc1ccccc1NC(=O)c1ccccc1Sc1ccc([N+](=O)[O-])cc1 | – | > 5 | – |
| COC(=O)Nc1nc2cc(Sc3ccccc3)ccc2[nH]1 | – | > 5 | – |
| CC(C)c1ccc(COc2cccc(-c3cc(S(C)=O)c(C#N)c(=O)[nH]3)c2)cc1 (stereo not given) | 0.95 | > 5 | – |
| COc1ccc(C(C)(C)C)cc1NC(=O)C(=O)c1ccc(OCCN2CCOCC2)c2ccccc12 | – | > 5 | – |
| CCc1c(OCC2CCC2)c2cc(F)ccc2[nH]c1=O | – | > 5 | – |
| Fc1ccc(-n2cc(Cn3c(-c4cccc(F)c4)nc4ccccc43)nn2)cc1 | – | > 5 | – |
| CC[C@H](CO)Nc1nc(NCc2ccccc2)c2ncn(C(C)C)c2n1 | – | > 5 | – |
| CCc1cc(Cc2cnc(N)nc2N)cc2c1N(C)CCC2C (stereo not given) | – | > 5 | – |
| NC(=O)c1c(N)sc2c1CCCCC2 | – | > 5 | – |
| COc1cccc(N2CCN(C3=Nc4c(F)cccc4[C@H](CC(=O)O)N3c3cc(C(F)(F)F)ccc3OC)CC2)c1 | – | > 5 | – |
| COc1cc(C(C(=O)NC2CCCCC2)N(C(=O)Cc2c[nH]c3ccccc23)c2ccc(C(C)C)cc2)cc(OC)c1OC (stereo not given) | – | > 5 | – |
| CN(C)[C@@H]1C(=O)C(C(N)=O)=C(O)[C@@]2(O)C(=O)C3=C(O)c4c(O)c(NC(=O)CN5CCCC5)cc(F)c4C[C@H]3C[C@@H]12 | – | > 5 | 1.5 |
| Nc1nc(-c2ccccc2)nc2c1ncn2[C@@H]1O[C@H](COS(=O)(=O)NC(=O)c2ccccc2O)[C@@H](O)[C@H]1O | – | > 5 | – |
| CC(C)(C)c1cc(C(=O)/C(C#N)=N/Nc2cccc(Cl)c2)no1 | – | > 5 | – |
| CCCCCCCCCN1C[C@@H](O)[C@H](O)[C@@H](O)[C@@H]1CO | – | > 5 | – |
| O=P(O)(O)C(CCCc1cccc(Oc2ccccc2)c1)S(=O)(=O)O (stereo not given) | – | > 5 | – |
| O=C(CC1Sc2ncnn2C1=O)Nc1ccc(Br)cc1 (stereo not given) | – | > 5 | – |
| Cc1cccc(CC(=O)N[C@H]2CCOC2=O)c1 | – | > 5 | – |
| O=S(=O)(Nc1ccccc1)c1ccc(NC(=S)Nc2ccccc2)cc1 | – | > 5 | – |
| N#Cc1cc([N+](=O)[O-])ccc1Oc1ccccc1Cl | – | > 5 | – |
| Cc1cc(CCCOc2c(C)cc(-c3noc(C(F)(F)F)n3)cc2C)on1 | – | > 5 | – |
| Fc1ccc2c(/C=C/c3nnn[nH]3)c[nH]c2c1 | – | > 5 | – |
| CCOc1ccc(/C=N/NC(=O)C2CC2c2ccc(C(C)(C)C)cc2)cc1OCC (stereo not given) | – | > 5 | – |
| O=C(/C=C\n1cnc(-c2cc(C(F)(F)F)cc(C(F)(F)F)c2)n1)NNc1ccccn1 | – | > 5 | – |

Now from value to molecule:

| IC50 (ATP bioluminescence) [1] [µM] | IC50 [2] [µM] | IC50 [3] [µM] | Structure (SMILES) |
| --- | --- | --- | --- |
| 0.62 | > 5 | > 6 | CN(C)CCCNC(=O)c1ccc(-c2cc(O)c3ncccc3c2)cc1 |
| – | > 5 | 0.703 | CCc1nc(N)nc(N)c1C#CCc1ccccc1 |
| – | > 5 | > 6 | CCCCc1ccc(S(=O)(=O)Nc2cc(C)on2)cc1 |
| – | > 5 | 3.65 | Cn1cncc1[C@@](N)(c1ccc(Cl)cc1)c1ccc2c(c1)c(-c1cccc(Cl)c1)cc(=O)n2C |
| – | > 5 | 2.12 | O=C(c1ccccc1)N1CCN(c2ccccc2NC(=O)C(Cl)(Cl)Cl)CC1 |
| – | > 5 | > 6 | COc1ccc(SC(=O)N[C@H](CCC(=O)O)C(=O)O)cc1 |
| – | > 5 | > 6 | COc1ccc(CNC(=O)C2CCN([C@H](C)c3cccc4ccccc34)CC2)cc1 |
| – | > 5 | 0.687 | O=[N+]([O-])c1ccc2c(CCc3c[nH]c4ccccc34)c[nH]c2c1 |
| – | > 5 | > 6 | CCCCCc1ccc(C(=O)NCCn2cc(CCCCCc3cnc(N)[nH]3)nn2)cc1 |
| – | > 5 | 5.1 | Cc1ccc(S(=O)(=O)Nc2cccc3cccnc23)cc1 |
| – | > 5 | 2.57 | O=C(O)CSc1cc(NS(=O)(=O)c2cccc3cccnc23)c2ccccc2c1O |
| – | > 5 | > 6 | Cc1oncc1C(=O)Nc1ccc(C(F)(F)F)cc1 |
| 5.86 | > 5 | – | Clc1ccc(Cn2c(CN3CCCC3)nc3ccccc32)cc1 |
| – | 1.01 | 1.78 | COc1ccc2nc(-c3ccccc3)cc(O)c2c1 |
| – | > 5 | > 6 | C=C[C@]1(C)C[C@@H](OC(=O)CS[C@@H]2C[C@H]3CC[C@@H](C2)N3C)[C@]2(C)[C@H](C)CC[C@]3(CCC(=O)[C@H]32)[C@@H](C)[C@@H]1O |
| – | > 5 | > 6 | CC(C)Cn1c(=O)n(C)c(=O)c2c(-c3cncn3C)n(Cc3cccc4ccccc34)nc21 |
| – | > 5 | 2.55 | Cc1ccc(NC(=O)c2ccc(CN3CCN(C)CC3)cc2)cc1Nc1nccc(-c2cccnc2)n1 |
| – | > 5 | 5.04 | Oc1c(C(Nc2ccccn2)c2ccccc2)ccc2cccnc12 (stereo not given) |
| – | > 5 | > 6 | CCOCc1nc2c(N)nc3ccccc3c2n1CC(C)(C)O |
| 1.2 | > 5 | – | NCC(=O)Nc1ccc(-n2nc(C(F)(F)F)cc2-c2ccc3c(ccc4ccccc43)c2)cc1 |
| – | > 5 | 1.58 | CC1CN(c2ncnc3c2c(-c2ccccc2)cn3-c2ccc(F)cc2)CC(C)O1 (stereo not given) |
| – | > 5 | 0.472 | O=C(Nc1nnc(-c2ccccc2)o1)c1ccc(F)cc1 |
| – | > 5 | > 6 | CCOc1noc2cc(OCCC3CCN(c4ccc(C)nn4)CC3)ccc12 |

| IC50 (ATP bioluminescence) [1] [µM] | IC50 [2] [µM] | IC50 [3] [µM] | Structure (SMILES) |
| --- | --- | --- | --- |
| – | > 5 | 5.7 | NC1C2CC3CC(C2)CC1C3 (stereo not given) |
| – | > 5 | > 6 | O=C(Nc1ccc(N2CCN(C(=O)c3ccccc3)CC2)cc1)c1ccc2c(c1)OCO2 |
| – | > 5 | 0.138 | COc1ccc2cc3[n+](cc2c1OCCN(CCn1cncn1)Cc1ccc(F)cc1F)CCc1cc2c(cc1-3)OCO2 |
| – | 2.29 | 2.85 | CC(C)(C)NC(=O)[C@@H]1CN(Cc2cnc3occc3c2)CCN1C[C@@H](O)C[C@@H](Cc1ccccc1)C(=O)N[C@H]1c2ccccc2C[C@H]1O |
| – | > 5 | > 6 | O=C(Nc1nnc(-c2ccc(Cl)cc2)o1)c1nc2ccccc2s1 |
| – | > 5 | > 6 | CCC[C@@H]1C[C@@H](C(=O)N[C@@H]([C@H]2O[C@H](SC)[C@H](O)[C@@H](O)[C@H]2O)[C@H](C)Cl)N(C)C1 |
| 0.474 | > 5 | – | CC(C)=CCC/C(C)=C/CNCCNC1C2CC3CC(C2)CC1C3 (stereo not given) |
| 2.75 | > 5 | – | COc1cc(NS(=O)(=O)c2ccc(C)cc2)c2ncccc2c1 |
| 1.1 | > 5 | – | C[C@@H](NC(=O)c1cccc(-c2c[nH]c(-c3cc4ccccc4cn3)n2)c1)c1ccc(F)cc1 |
| – | > 5 | > 6 | CC(C)Nc1nc2cc(Cl)c(Cl)cc2n1[C@H]1O[C@@H](CO)[C@H](O)[C@@H]1O |
| – | > 5 | 0.825 | OC1O[C@H](CSc2ccc(F)cc2)[C@@H](O)[C@H]1O (stereo not given in full) |
| – | > 5 | > 6 | Cc1ccc(NC(=O)c2cc(Cl)ccc2O)cc1 |
| – | > 5 | 2.3 | Nc1nc(F)nc2c1ncn2[C@H]1O[C@@H](CO)[C@H](O)[C@@H]1O |
| – | > 5 | > 6 | O=C(NCc1ccc(F)cc1)c1c(O)c2ncccc2[nH]c1=O |
| – | > 5 | 2.11 | CCC(C)(C)c1ccc(CC(C)CN2C[C@@H](C)O[C@@H](C)C2)cc1 (stereo not given in full) |
| – | > 5 | > 6 | COc1ccc(CNC(=O)C(NS(=O)(=O)c2ccc3nc(C)sc3c2)C(C)C)cc1 (stereo not given) |
| – | > 5 | 5.84 | CCc1cc(O)c(Oc2ccc(C(N)=O)cc2F)cc1F |
| – | > 5 | > 6 | C=CCN(C(=O)OCc1ccc([N+](=O)[O-])cc1)C1CCN(CC[C@](C)(CN(C)S(=O)(=O)c2ccccc2)c2ccccc2)CC1 |
| 2.13 | 3.66 | > 6 | CC(C)Oc1ccc(-c2nc(-c3cccc4c3CC[C@@H]4NCCO)no2)cc1C#N |
| – | 4.09 | 2.16 | Nc1cc(N)c2nc(-c3ccccc3)c(Nc3ccc(F)cc3)nc2c1 |
| – | 4.99 | 0.765 | Fc1ccc(-c2nc(-c3c[nH]c4ccc(Br)cc34)[nH]c2-c2ccc(F)cc2)cc1 |
| – | 4.88 | – | CCCCCCCc1[nH]c2ccccc2c(=O)c1O |
